This note sets out measurements from publication PMC6153414 (Protein Science : A Publication of the Protein Society, 2018).

One test deals with T1, DotBL (Legionella pneumophila, UniProt O52185).
T1 construct: gene dotB

Test [1] addresses DotB from the dot/icm system encoded by the L. pneumophila genome (DotBL), wild type (L. pneumophila) (UniProt Q5ZS43). Briefly: SEC-MALS. In general terms: In gel filtration, larger molecules generally elute earlier.

On to `Nc1ncnc2c1ncn2[C@@H]1O[C@H](COP(=O)(O)OP(=O)(O)NP(=O)(O)O)[C@@H](O)[C@H]1O` [AMP–PNP], for which the “malachite green phosphate release, inhibition after 10 min preincubation” value at DotBL was “the analogue binds and competes with ATP resulting in an inhibition of phosphate release”.

One may read the stoichiometry N as a count of units in the complex or per binding partner. In turn, “DotB from the dot/icm system encoded by the L. pneumophila genome (DotBL), wild type (from UniProt Q5ZS43 1-387) (enzyme)” displayed a stoichiometry N in test [1] of 6.
